In US20220380414A1, “COMPOSITIONS AND METHODS BASED ON HIV GP120 MUTANTS” (CENTRE H[…] L'UNIVERSITÉ DE MONTRÉAL, priority 2019, published 2022):
“Also recorded” adds a separate entry of the source.

Key:
[1] = test system: Recombinant HIV-1 strains bearing wild-type or mutant CRF01_AE Envs (92TH023 and CM244 isolates); test: Neutralization of recombinant luciferase HIV-1 bearing wild-type or mutant CRF01_AE Envs, infection of Cf2Th-CD4/CCR5 cells; type: cell-based
Method: J Virol 74:10690-10698). Infectivity at each dilution of sCD4 or CD4mc tested is shown as the percentage of infection without sCD4 or CD4mc for each particular mutant. Quadruplicate samples were analyzed in each experiment. Data shown are the means of results obtained in at least 3 independent experiments. The error bars represent the standard deviations. […]
FIGS. 6A-F show the effect of Phe43 cavity and layer mutations (LM) on neutralization by small molecules known to stabilize Env State 1. Recombinant HIV-1 strains expressing luciferase and bearing wild-type or mutant CRF01_AE Envs (92TH023 and CM244 isolates) were normalized by reverse transcriptase activity. Normalized amounts of viruses were incubated with serial dilutions of BMS-626529 (Nowicka-Sans B et al. 2012. Antimicrob Agents Chemother 56:3498-3507; Pancera M et al., 2017. Nat Chem Biol 13:1115-1122) (FIG. 6A, B) or 484 (16) (FIG. 6C) at 37° C. for 1 h prior to infection of Cf2Th-CD4/CCR5 cells. Infectivity at each dilution of the compound tested is shown as the percentage of infection without the compound for each particular mutant. Quadruplicate samples were analyzed in each experiment. Data shown are the means of results obtained in at least 3 independent experiments. The error bars represent the standard deviations. (FIG. 6E, F) Cell-surface staining of 293T cells transfected with different CRF01_AE Env expressors (92TH023 and CM244 isolates) WT or their mutated counterparts together with a GFP expressor (in order to identify positively transfected cells) using sCD4. Binding of sCD4 in presence of BMS-626529 (50 μM) or not (DMSO) was detected with the anti-CD4 OKT4 mAb. Shown are the mean fluorescence intensities (MFI) obtained in presence of BNM-III-170 normalized to the MFI in absence of BNM-III-170 (DMSO) from the transfected (GFP+) population for staining obtained in at least 3 independent experiments. All MFI were normalized to 2G12 MFI for each Env mutants. Decrease in sCD4 signal indicates competition with BMS-626529 (i.e., this represents an indirect measure of BMS-626529 interaction with each Env mutant). […] Error bars indicate mean±SEM. Statistical significance was tested using an unpaired t-test (** p<0.01, ns: non significant). […]
CD4mc were used as probes to evaluate the potential impact of the LM residues on shaping the Phe43 cavity. […] In contrast, no or very little effect was measured in recombinant viruses with mutations in the Phe43 cavity only or in the inner domain layer only.

[2] = test system: CRF01_AE Env from a transmitted founder strain (40100 isolate) with LM+HS mutations; test: Cell-surface staining of primary CD4+ T cells infected with SHIV expressing CRF01_AE Env, anti-Env mAb binding with compound; type: cell-based
Method: Cell-surface staining of primary CD4^+ T cells infected with SHIV expressing a CRF01_AE Env from a transmitted founder strain (40100 isolate) (Chenine A L et al., 2018. J Acquir Immune Defic Syndr 78:348-355; Kijak G H et al., 2017. PLoS Pathog 13:e1006510) mutated to harbor the LM+HS mutations using a panel of Env ligands. Binding of anti-Env mAbs preferring State 1 (PGT128, PGT145, PG9, 10-1074) (FIG. 7A-D) or preferring State 2/3 (19b, 17b) (FIG. 7E-F) was performed in presence of DMSO or increasing amount of BNM-III-170 (stabilises States 2/3 (Munro J B et al., 2014. Science 346:759-763; Alsahafi N et al., 2019. Cell Host Microbe 25:578-587: e575; Herschhorn A, et al. 2017. Nat Commun 8:1049) or BMS-626529 (stabilizes State 1, (Lu M et al. 2019. Nature 568, pages 415-419; Munro J B et al., 2014. Science 346:759-763)). Shown are the mean fluorescence intensities (MFI) obtained in presence of the compounds normalized to the MFI in absence of any compound (DMSO) from the infected (p27+) population. All MFI were normalized to 2G12 MFI for each mAb. State 1 and State 2/3 Abs were grouped in FIG. 7G and FIG. 7H, respectively.

[3] = test system: CRF01_AE Env (92TH023 and CM244 isolates) WT or mutated; test: Cell-surface staining of HEK293T cells transfected with CRF01_AE Env expressors, Env ligand binding with or without compound; type: cell-based, HIV-1
Method: Cell-surface staining of HEK293T cells transfected with different CRF01_AE Env expressors (92TH023 and CM244 isolates) WT or their mutated counterparts together with a GFP expressor (in order to identify positively transfected cells) using a panel of Env ligands. (FIG. 4A, B) sCD4 binding in presence of BNM-III-170 (50 μM) or not (DMSO) was detected with the anti-CD4 OKT4 mAb. Binding of broadly-neutralizing antibodies (bNAbs) that preferentially recognize state 1 Env (Lu M et al. 2019. Nature 568, pages 415-419; Munro J B et al., 2014. Science 346:759-763) (FIG. 4B, E) and non-neutralizing antibodies (nnAbs) that preferentially recognize states 2/2A/3 (Alsahafi N et al., 2019. Cell Host Microbe 25:578-587, Prevost J et al., 2018. Virology 515:38-45) (FIG. 4C, F) was also performed in presence of BNM-III-170 (50 μM) or not (DMSO). Shown are the mean fluorescence intensities (MFI) obtained in presence of BNM-III-170 normalized to the MFI in absence of BNM-111-170 (DMSO) from the transfected (GFP+) population for staining obtained in at least 3 independent experiments. All MFI were normalized to MFI signals obtained with the anti-gp120 outer domain 2G12. Decrease in sCD4 signal indicates competition with BNM-III-170 (i.e., this represents an indirect measure of BNM-III-170 interaction with each Env mutant) (FIGS. 4A and D). […] Increase in nnAbs signal is consistent with the capacity of BNM-III-170 to push Env to downstream “open” states 2/3 conformations (C and F). […] Error bars indicate mean±SEM. Statistical significance was tested using an unpaired t-test (* p<0.05, ** p<0.01, *** p<0.001, **** p<0.0001, ns: non significant).
FIGS. 6A-F show the effect of Phe43 cavity and layer mutations (LM) on neutralization by small molecules known to stabilize Env State 1. Recombinant HIV-1 strains expressing luciferase and bearing wild-type or mutant CRF01_AE Envs (92TH023 and CM244 isolates) were normalized by reverse transcriptase activity. Normalized amounts of viruses were incubated with serial dilutions of BMS-626529 (Nowicka-Sans B et al. 2012. Antimicrob Agents Chemother 56:3498-3507; Pancera M et al., 2017. Nat Chem Biol 13:1115-1122) (FIG. 6A, B) or 484 (16) (FIG. 6C) at 37° C. for 1 h prior to infection of Cf2Th-CD4/CCR5 cells. Infectivity at each dilution of the compound tested is shown as the percentage of infection without the compound for each particular mutant. Quadruplicate samples were analyzed in each experiment. Data shown are the means of results obtained in at least 3 independent experiments. The error bars represent the standard deviations. (FIG. 6E, F) Cell-surface staining of 293T cells transfected with different CRF01_AE Env expressors (92TH023 and CM244 isolates) WT or their mutated counterparts together with a GFP expressor (in order to identify positively transfected cells) using sCD4. Binding of sCD4 in presence of BMS-626529 (50 μM) or not (DMSO) was detected with the anti-CD4 OKT4 mAb. Shown are the mean fluorescence intensities (MFI) obtained in presence of BNM-III-170 normalized to the MFI in absence of BNM-III-170 (DMSO) from the transfected (GFP+) population for staining obtained in at least 3 independent experiments. All MFI were normalized to 2G12 MFI for each Env mutants. Decrease in sCD4 signal indicates competition with BMS-626529 (i.e., this represents an indirect measure of BMS-626529 interaction with each Env mutant). […] Error bars indicate mean±SEM. Statistical significance was tested using an unpaired t-test (** p<0.01, ns: non significant).
To gain a better understanding of the impact that the LM and 375 changes have on Env conformation, an assay to measure sCD4 and BNM-III-170 capacity to interact with Env was developed. Briefly, CD4-negative cells were transfected with Env variants. Two days post-transfection, BNM-III-170 or the vehicle (DMSO) was added to Env-expressing cells. […]

[4] = LM+HS or LM+HT mutants of CRF01_AE Envs versus wild-type
[5] = LM+HS or LM+HT mutants, BNM-III-170 50 μM vs DMSO

SMILES: COc1cnc(-n2cnc(C)n2)c2[nH]cc(C(=O)C(=O)N3CCN(C(=O)c4ccccc4)CC3)c12 [BMS-626529, temsavir]
- sensitivity to neutralization [1, 4]: sensitized
- Env recognition by bNAbs preferentially binding state 1 in presence of compound ([2]; increasing amount of BMS-626529 vs DMSO): enhanced Env recognition
- Env conformation adopted in presence of ligand ([3]; CRF01_AE gp160 with the same six mutations combined with H375S): tend to adopt a state 1 configuration
- sCD4 signal in presence of compound (competition, indirect measure of interaction with Env) ([3]; LM-HS mutant, BMS-626529 50 μM vs DMSO, detected with anti-CD4 OKT4 mAb): statistically significant decrease

SMILES: CNCc1ccc2c(c1)C[C@H](CN=C(N)N)[C@H]2NC(=O)C(=O)Nc1ccc(Cl)c(F)c1.O=C(O)C(F)(F)F.O=C(O)C(F)(F)F [BNM-III-170]
- susceptibility to neutralization ([1]; H375S combined with LM mutations (LM+HS), both CRF01_AE strains): dramatically enhanced the susceptibility
- neutralization of pseudotypes ([1]; H375S mutant of both CRF01_AE Envs): did not restore neutralization sensibility
- sensitivity to neutralization [1, 4]: more sensitive to neutralization
- sensitivity to neutralization ([1]; different combinations of single or multiple layer mutations together with H375S): did not restore sensitivity
- neutralization of viral particles ([1]; wild-type CRF01_AE Envs (92TH023 and CM244)): resistant to neutralization
- Env recognition by nnAbs preferentially binding states 2/3 in presence of compound ([2]; increasing amount of BNM-III-170 vs DMSO): enhanced Env recognition
- Env conformation adopted in presence of ligand ([3]; CRF01_AE gp160 with H61Y, Q105H, V108I, N474D, I475M, K476R combined with H375T): tend to adopt an open state 2/3 configuration
- compound-induced Env conformational changes (open conformation) [3, 5]: superior; also recorded: more susceptible
- recognition by state 1 preferring bNAbs in presence of compound [3, 5]: decrease in recognition
- sCD4 and nnAbs binding (open state 2/3 preferring) in presence of compound [3, 5]: increase in sCD4 and nnAbs binding
